US9487561B2, “Biologically active complex and its preparation” (HAMLET PHARMA AB, priority 2010, dated 2016)

How the values were obtained:
[1] = tested on: A549 lung carcinoma cells; assay: global transcriptional response, whole genome arrays (Affymetrix); type: cell-based, human; conditions: Example 5, Affymetrix U219, adjusted p-value <0.05 and log 2-foldchange of 1
Procedure: For the microarray analysis with ion channel inhibitors, 200,000 A549 cells/well were allowed to adhere overnight on a 6-well plate. After 1 hour of HAMLET treatment, the cells were lysed and RNA was extracted using the RNeasy Mini Kit (QIAGEN). The samples were sent to AROS Applied Biotechnology (Århus, Denmark) for analysis. Data was preprocessed using RMA implemented in the free software packages “affy” as provided by R and Bioconductor (<www.r-project.org>). Differentially expressed genes were identified using empirically Bayes adjusted t-statistics and characterized using the Functional Annotation Clustering Tool in the Database for Annotation, Visualization and Integrated Discovery (DAVID), (Dennis et al., 2003 Genome Biology 4(5): P3) and Ingenuity Pathway Analysis (Ingenuity Systems). All microarray data were registered into NCBI's Gene Expression Omnibus (GEO) database (<www.ncbi.nlm.nih.gov/projects/geo>) with accession numbers GSE23772.
To understand the mechanisms of carcinoma cell death and the contribution of ion channel activation, the global transcriptional response to HAMLET was examined, using whole genome arrays. A549 lung carcinoma cells were exposed to HAMLET (21 μM) for one hour and cells pretreated with amiloride were compared to cells in medium alone. […] An unbiased global overview of transcription was obtained by performing a hierarchical clustering of the top 3000 genes by variance and was visualized in a heatmap (FIG. 2D and FIG. 13). Genes with empirical Bayes adjusted p-values <0.05 and log 2 fold changes >1 were considered differentially expressed and were functionally characterized using Database for Annotation, Visualization and Integrated Discovery, (Dennis et al., supra, 2003) and Ingenuity Pathway Analysis.
In total 12 RNA samples were generated (triplicate of control, oleic Acid, HAMLET, and oleate-treated) and hybridized to Affymetrix Whole Genome microarrays U219. […] For statistical analysis normalized data were linear model fitted and Empirical Bayesian analysis, coupled with p-value adjustment, performed.

[2] = tested on: tumor cells; assay: ion fluxes (Ca^2+, K^+, Na^+) quantified by fluorometry; type: cell-based; conditions: for fluxes of Ca^2+, K^+ and Na^+: FIG. 1B
Procedure: FIG. 1. […] (A, upper panels) Bright-field micrographs showing glass-adherent egg yolk vesicles before and after a 40-minute exposure to HAMLET, α-lactalbumin (HLA) or oleic acid (OA). Morphology was recorded by differential interference contrast microscopy. Scale bar […]. […] (A, lower panels) Effect of HAMLET on PMVs from lung carcinoma cells. PMVs on glass-bottom dishes were exposed to HAMLET, HLA or OA and stained with Nile red for confocal microscopy. […] As a control PMVs from healthy, differentiated cells on glass-bottom dishes were also exposed to HAMLET and stained with Nile red.
FIG. 7. Ion Fluxes. (A) Ion fluxes induced by HAMLET (35 μM) or it constituents (35 μM All-ala α-lactalbumin or 175 μM sodium oleate) were quantified by fluorometry, as described. […] (B) The global transcriptional response to HAMLET was studied by microarray and the top 3000 genes by variance visualized in a Heatmap. […] Darker bands=high expression, lighter bands=low.
(§1) The FLUXOR™ potassium (K^+) channel assay was performed on the TECAN infinite F200 (Tecan Group, Switzerland), according to the manufacturer's instructions (Invitrogen). Briefly, this involved FLUXOR™ loading buffer (Hank's Balanced Saline Solution, (HBSS) buffered with 20 mM HEPES and pH adjusted to 7.4 with NaOH. POWERLOAD™ concentrate and water-soluble Probenecid were used respectively to enhance the dye solubility and retention, respectively. Media were removed from the cell plates manually, and 80 μL of loading buffer containing the FLUXOR™ dye mix was applied to each well. Once inside the cell, the nonfluorescent AM ester form of the FLUXOR™ dye is cleaved by endogenous esterases into a thallium-sensitive indicator. The dye was loaded for 60 minutes at room temperature and then removed with the supernatant. After washing with dye-free PBS buffer, a final volume of 80 μL assay buffer containing water-soluble probenecid was added. Cells received one of the following channel inhibitors: 3.3 μL per well of 30 mM amiloride, 3.0 μL of 32 mM BaCl2, 1.8 μL of 5.4 mM gadolinium, 3 μL 3.2 mM tetrandrine and 2.3 μL of 2.6 mM ruthenium red, and were then incubated at room temperature (23-25° C.) for 30 minutes to allow equilibration of the test compounds. Prior to injection, stimulation buffer was prepared from the chloride-free buffer and thallium reagents provided in the kit as well as HAMLET, to achieve a final added concentrations of 2 mM free Tl+ and 35 μM HAMLET after 1:5 dilution upon injection of the stimulus buffer onto cells that had been loaded with FLUXOR™ dye.

[3] = tested on: potassium channels in A549, lung carcinoma cell lines; assay: FLUXOR potassium (K^+) channel assay, Thallium (Tl^+) indicator; type: cell-based, human; conditions: HAMLET 35 μM; oleate 175 μM (5× the HAMLET concentration); peptides mixed with oleate and immediately added
Procedure: as §1
To distinguish Ca^2+ mobilization from intracellular stores from the influx of extracellular Ca^2+, EGTA was then added to the cell medium. […] K^+ fluxes across tumor cell membranes were subsequently quantified under the same experimental conditions, using the fluorophore FLUXOR™, which fluoresces after thallium has entered cells through K^+ channels.
Potassium channel activity was therefore measured in A549, lung carcinoma cell lines using an indicator, which emits fluorescence signal upon entering the cells via opened potassium channels, Thallium (Tl^+) indicator (FIG. 18).

[4] = 35 μM All-ala α-lactalbumin or 175 μM sodium oleate, FIG. 7A

Molecule	fluxes of Ca^2+, K^+ and Na^+ [2]	potassium channel activity (fluorescence signal) [3]	other results
CCCCCCCC/C=C\CCCCCCCC(=O)O [oleic acid, reference compound]	no effect		number of differentially expressed genes [1]: two; ion channel activating activity ([2]; at concentrations relevant for the HAMLET complex): did not show ion channel activating activity
Alpha 1: α-lactalbumin peptide, residue 1-40 (EQLTKCEVFRELKDLKGYGGVSLPEWVCTTFHTSGYDTQA; UniProt P00711 20-59, looked up, fragment)		did not open potassium channels	
Alpha 2: α-lactalbumin peptide, residue 81-123 (LDDDLTDDIMCVKKILDKVGINYWLAHKALCSEKLDQWLCEKL; UniProt P00711 100-142, looked up, fragment)		did not open potassium channels	
Beta: α-lactalbumin peptide, residue 41-80 (IVQNNDSTEYGLFQINNKIWCKDDQNPHSSNICNISCDKF; UniProt P00711 60-99, looked up, fragment)		did not open potassium channels	
α-lactalbumin: native α-lactalbumin purified from human milk (protein, UniProt P00709 20-142, looked up) Alpha-lactalbumin: KQFTKCELSQLLKDIDGYGGIALPELICTMFHTSGYDTQAIVENNESTEYGLFQISNKLWCKSSQVPQSRNICDISCDKFLDDDITDDIMCAKKILDIKGIDYWLAHKALCTEKLEQWLCEKL	no effect		
α-lactalbumin^all-ala mutant: partially unfolded α-lactalbumin with all cysteines mutated to alanine (SEQ ID NO: 1 / 2) (protein) chain 1: KQFTKAELSQLLKDIDGYGGIALPELIATMFHTSGYDTQAIVENNESTEYGLFQISNKLWAKSSQVPQSRNIADISADKFLDDDITDDIMAAKKILDIKGIDYWLAHKALATEKLEQWLAEKL chain 2: MKQFTKAELSQLLKDIDGYGGIALPELIATMFHTSGYDTQAIVENNESTEYGLFQISNKLWAKSSQVPQSRNIADISADKFLDDDITDDIMAAKKILDIKGIDYWLAHKALATEKLEQWLAEKL			K^+ fluxes [2, 4]: comparable to HAMLET; Na^+ or Ca^2+ fluxes [2, 4]: weaker
